Measured values: patent publication US12492174B2, “Morpholine-3-carboxamide derivatives as prostaglandin E2 receptor 4 (EP4) agonists for the treatment of gastrointestinal and pulmonary diseases” (NXERA PHARMA UK LIMITED, priority 2022, dated 2025)
Blank lines part the entries; values can stand above or below the compound they belong to.

Key:
[1] = Unidirectional Caco-2 cell permeability assay; type: in vitro ADME; conditions: human, n=2, apical pH 6.5, basolateral pH 7.4, 1 hour, 37° C.
Experimental: Caco-2 cells (ECACC) were seeded onto 24-well Transwell plates at 2×10^5 cells per well and used in confluent monolayers after a 21 day culture at 37° C. under 5% CO2. Test compounds were incubated at 10 μM, 0.2% DMSO final, n=2 in assay buffer (Hanks balanced salt solution supplemented with 25 mM HEPES, adjusted to pH 6.5). Hanks balanced salt solution supplemented with 25 mM HEPES, adjusted to pH 7.4 (0.2% DMSO final) was used for the basolateral chamber (as receiver).
Incubations were performed at 37° C., with samples removed from both donor and acceptor chambers at T=0 and 1 hour and compound analysed by mass spectrometry (LC-MS/MS) including an analytical internal standard (0.5 μM carbamazepine).
Apparent permeability (Papp) values are shown in Table 4 and were determined from the relationship:
Where V is the volume of each Transwell compartment (apical 125 μL, basolateral 600 μL), and concentrations are the relative MS responses for compound (normalized to internal standard) in the donor chamber before incubation and acceptor chamber at the end of the incubation Area=area of cells exposed for drug transfer (0.33 cm^2).
Lucifer Yellow (LY) was added to the apical buffer in all wells to assess viability of the cell layer. As LY cannot freely permeate lipophilic barriers, a high degree of LY transport indicates poor integrity of the cell layer and wells with a LY Papp>10×10^−6 cm/s were rejected.
Compound recovery from the wells was determined from MS responses (normalized to internal standard) in donor and acceptor chambers at the end of incubation compared to response in the donor chamber pre-incubation.

human EP4 = target: T1, human EP4 (Homo sapiens, UniProt P35408); experiment: cAMP Gs functional assay (HTRF cAMP dynamic-2); type: cell-based; conditions: for Emax: HEK293, HEK293 cells transfected with EP4 Bacmam virus, positive control 10 uM PGE2; for EC50: HEK293 cells transfected with EP4 Bacmam virus, 30 mins at 37° C., −Log of the molarity (M), read-out: cAMP human EP4 pEC50 (converted)
T1 construct: expressed in transfected cells; host or cells: HEK293 cells transduced with EP4 BacMam virus
Experimental: Cloning, Baculovirus generation, large scale infection of HEK293 cells and membrane preparation: Human prostaglandin E2 receptor 4 (EP4) was cloned into pBacMam expression vector (GeneScript, UK). Transposition of EP4 DNA was performed using Invitrogen's Bac-to-Bac Baculovirus Expression Systems. P0 baculovirus was generated by transfecting SF9 Cells with bacmid DNA using Cellfectin II transfection reagent (ThermoFisher Scientific, UK). Following P0 generation P1 virus was then generated ready for large scale infection and membrane preparation. HEK293 cells were grown in DMEM (ThermoFisher Scientific, UK), supplemented with 10% heat inactivated fetal bovine serum (FBS). Cells were infected at a seeding density of 3.5 million cells/mL in 500 cm^3 flasks at 5% v/v EP4 Bacman. Expression was carried out over a 36 hr period at 37° C. with 5% CO2. The cells were removed using PBS and a cell scrapper. The cell culture was centrifuged at 2500 RPM for 10 mins at 4° C. The supernatant was then poured off and the pellet stored at −80° C. The pellet was defrosted and re-suspended in 15 mL of homogenising buffer (20 mM HEPES, 10 mM EDTA, pH 7.4). Then homogenised in mechanical homogeniser (VMR) for 10 seconds. The membrane was centrifuged in centrifuge tubes at 40,000 g for 15 mins at 4° C. The supernatant was poured away and re-suspended in 15 mL of homogenising buffer. Homogenised for 20 seconds. The membrane was centrifuged at 40,000 g for 45 mins at 4° C. The membrane was re-suspended in 3 mL of storage buffer (20 mM HEPES, 0.1 mM EDTA, pH 7.4) mixing well. The resulting membranes were then stored at −80° C.
cAMP Gs Functional Assay: cAMP production following EP4 receptor activation was determined using the Homogeneous Time-Resolved Fluorescence (HTRF) cAMP dynamic-2 assay (Cisbio, France). HEK293 cells were transfected using a 0.5% EP4 Bacmam virus for 36 hours, before dissociating the cells, and freezing at −150° C.
On the day of testing, increasing concentration of test compounds, alongside positive controls (10 uM PGE2 (Tocris, Abingdon, UK)) and negative control (DMSO (Sigma-Aldrich, UK) were added to a ProxiPlate-384 Plus, White 384-shallow well Mircoplate, (PerkinElmer, USA) using the ECHO dispense.
Cells were defrosted in a water bath and resuspended in DMEM supplemented with 10% FBS before centrifuging at 1200 RPM for 5 mins to form a pellet. The pellet was resuspended in assay buffer (DMEM+0.5 mM IBMX (Tocris, Abingdon, UK)) to 0.5×10^6 cells/mL. Cell suspension, for a final assay concentration of 5000 cell/well was added using the multidrop to the pre-dispensed assay plate. The plate was then incubated at 37° C. for 30 mins, with 5% CO2. The cAMP production was determined as manufacturer's instructions, before plates were read on a PheraStar fluorescence plate reader (BMG LabTech, Germany).
The pEC50 values (−Log of the molarity (M) in mol/liter) were calculated from the mid-point of the curve using dotmatics as shown in Table 3.

T1 sequence (P35408 whole entry): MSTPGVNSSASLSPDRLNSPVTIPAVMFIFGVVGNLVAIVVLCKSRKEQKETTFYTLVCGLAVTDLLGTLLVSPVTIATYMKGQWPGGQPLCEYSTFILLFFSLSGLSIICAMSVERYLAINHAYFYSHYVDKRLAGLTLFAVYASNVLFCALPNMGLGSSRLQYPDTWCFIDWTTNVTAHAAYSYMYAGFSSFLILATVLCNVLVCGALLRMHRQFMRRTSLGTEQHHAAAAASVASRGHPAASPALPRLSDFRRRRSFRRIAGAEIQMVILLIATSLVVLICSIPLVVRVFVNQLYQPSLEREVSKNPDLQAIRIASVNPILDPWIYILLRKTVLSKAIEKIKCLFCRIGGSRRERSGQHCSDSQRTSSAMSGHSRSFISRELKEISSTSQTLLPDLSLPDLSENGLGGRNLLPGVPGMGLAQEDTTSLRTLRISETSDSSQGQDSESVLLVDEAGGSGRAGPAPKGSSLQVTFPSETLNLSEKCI

Papp A→B at 1 h, 10 μM [1]: < 0.1 ×10⁻⁶ cm/s
Emax (human EP4): 99%
EC50 (human EP4): 1e-08 M
SMILES: Cc1cc(C(N)=O)ccc1-c1cccc(CN2CCOC[C@@H]2C(=O)N[C@@H](C)c2ccc(C(=O)O)c(O)c2)c1 [Example 19, 4-((S)-1-((R)-4-((4′-carbamoyl-2′-methyl-[1,1′-biphenyl]-3-yl)methyl)morpholine-3-carboxamido)ethyl)-2-hydroxybenzoic acid]

Papp A→B at 1 h, 10 μM [1]: 0.23 ×10⁻⁶ cm/s
Emax (human EP4): 100%
SMILES: Cc1cc(C(N)=O)ccc1-c1cncc(CN2CCOC[C@@H]2C(=O)N[C@@H](C)c2ccc(C(=O)O)c(O)c2)c1 [Example 28, 4-((S)-1-((R)-4-((5-(4-carbamoyl-2-methylphenyl)pyridin-3-yl)methyl)morpholine-3-carboxamido)ethyl)-2-hydroxy benzoic acid]

Papp A→B at 1 h, 10 μM [1]: 0.78 ×10⁻⁶ cm/s
Emax (human EP4): 99%
EC50 (human EP4): 3.98e-10 M
SMILES: Cc1cc(C(N)=O)ccc1-c1cc(O)cc(CN2CCOC[C@@H]2C(=O)N[C@@H](C)c2ccc(C(=O)O)c(O)c2)c1 [Example 18, 4-((S)-1-((R)-4-((4′-carbamoyl-5-hydroxy-2′-methyl-[1,1′-biphenyl]-3-yl)methyl)morpholine-3-carboxamido)ethyl)-2-hydroxybenzoic acid]

Papp A→B at 1 h, 10 μM [1]: 0.35 ×10⁻⁶ cm/s
Emax (human EP4): 99%
EC50 (human EP4): 7.94e-11 M
SMILES: Cc1cc(C(N)=O)ccc1-c1cc(O)cc(CN2CCOC[C@@H]2C(=O)N[C@H](C)c2ccc(C(=O)O)cc2)c1 [Example 39, 4-((R)-1-((R)-4-((4′-carbamoyl-5-hydroxy-2′-methyl-[1,1′-biphenyl]-3-yl)methyl)morpholine-3-carboxamido)ethyl)benzoic acid]

Papp A→B at 1 h, 10 μM [1]: < 0.1 ×10⁻⁶ cm/s
Emax (human EP4): 94%
EC50 (human EP4): 2e-08 M
SMILES: Cc1cc(C(N)=O)ccc1-c1cc(O)cc(CN2CCOC[C@H]2C(=O)N[C@H](C)c2ccc(C(=O)O)cc2)c1 [Example 38, 4-((R)-1-((S)-4-((4′-carbamoyl-5-hydroxy-2′-methyl-[1,1′-biphenyl]-3-yl)methyl)morpholine-3-carboxamido)ethyl)benzoic acid]

Papp A→B at 1 h, 10 μM [1]: < 0.1 ×10⁻⁶ cm/s
Emax (human EP4): 98%
EC50 (human EP4): 2e-10 M
SMILES: Cc1cc(C(N)=O)ccc1-c1cc(O)cc(CN2CCOC[C@@H]2C(=O)N[C@@H](C)c2ccc(C(=O)O)cc2)c1 [Example 10, 4-((S)-1-((R)-4-((4′-carbamoyl-5-hydroxy-2′-methyl-[1,1′-biphenyl]-3-yl)methyl)morpholine-3-carboxamido)ethyl)benzoic acid]

More lines, now with the values behind:

SMILES: Cc1cc(C(N)=O)ccc1-c1cccc(CN2CCOC[C@@H]2C(=O)NC2(c3ccc(C(=O)O)cc3)CC2)c1 [Example 31, (R)-4-(1-(4-((4′-carbamoyl-2′-methyl-[1,1′-biphenyl]-3-yl)methyl)morpholine-3-carboxamido)cyclopropyl)benzoic acid]
Papp A→B at 1 h, 10 μM [1]: 0.66 ×10⁻⁶ cm/s
Emax (human EP4): 98%
EC50 (human EP4): 1.26e-10 M

SMILES: Cc1cc(S(N)(=O)=O)ccc1-c1cncc(CN2CCOC[C@@H]2C(=O)N[C@@H](C)c2ccc(C(=O)O)c(O)c2)c1 [Example 21, 2-hydroxy-4-((S)-1-((R)-4-((5-(2-methyl-4-sulfamoylphenyl)pyridin-3-yl)methyl)morpholine-3-carboxamido)ethyl)benzoic acid]
Papp A→B at 1 h, 10 μM [1]: < 0.1 ×10⁻⁶ cm/s
Emax (human EP4): 99%
EC50 (human EP4): 1.58e-08 M

SMILES: Cc1cc(S(N)(=O)=O)ccc1-c1cc(O)cc(CN2CCOC[C@@H]2C(=O)N[C@@H](C)c2ccc(C(=O)O)cc2)c1 [Example 11, 4-[(1S)-1-[[(3R)-4-[[3-hydroxy-5-(2-methyl-4-sulfamoyl-phenyl)phenyl]methyl]morpholine-3-carbonyl]amino]ethyl]benzoic acid]
Papp A→B at 1 h, 10 μM [1]: < 0.1 ×10⁻⁶ cm/s
Emax (human EP4): 98%
EC50 (human EP4): 3.98e-10 M

SMILES: Cc1cc(S(N)(=O)=O)ccc1-c1cncc(CN2CCOC[C@@H]2C(=O)N[C@@H](C)c2ccc(C(=O)O)cc2)c1 [Example 12, 4-[(1S)-1-[[(3R)-4-[[5-(2-methyl-4-sulfamoyl-phenyl)-3-pyridyl]methyl]morpholine-3-carbonyl]amino]ethyl]benzoic acid]
Papp A→B at 1 h, 10 μM [1]: 0.12 ×10⁻⁶ cm/s
Emax (human EP4): 99%
EC50 (human EP4): 1.58e-08 M

SMILES: Cc1cc(OS(N)(=O)=O)ccc1-c1cc(O)cc(CN2CCOC[C@@H]2C(=O)N[C@@H](C)c2ccc(C(=O)O)cc2)c1 [Example 15, 4-[(1S)-1-[[(3R)-4-[[3-hydroxy-5-(2-methyl-4-sulfamoyloxy-phenyl)phenyl]methyl]morpholine-3-carbonyl]amino]ethyl]benzoic acid]
Papp A→B at 1 h, 10 μM [1]: < 0.1 ×10⁻⁶ cm/s
Emax (human EP4): 98%
EC50 (human EP4): 3.98e-10 M

SMILES: Cc1cc(S(N)(=O)=O)ccc1-c1cccc(CN2CCOC[C@@H]2C(=O)N[C@@H](C)c2ccc(C(=O)O)cc2)c1 [Example 5, 4-((S)-1-((R)-4-((2′-methyl-4′-sulfamoyl-[1,1′-biphenyl]-3-yl)methyl)morpholine-3-carboxamido)ethyl)benzoic acid]
Papp A→B at 1 h, 10 μM [1]: 0.59 ×10⁻⁶ cm/s
Emax (human EP4): 100%
EC50 (human EP4): 7.94e-10 M

SMILES: C[C@H](NC(=O)[C@H]1COCCN1Cc1ccc(O)c(-c2ccc(S(N)(=O)=O)cc2)c1)c1ccc(C(=O)O)cc1 [Example 24, 4-[(1S)-1-[[(3R)-4-[[4-hydroxy-3-(4-sulfamoylphenyl)phenyl]methyl]morpholine-3-carbonyl]amino]ethyl]benzoic acid]
Papp A→B at 1 h, 10 μM [1]: 0.26 ×10⁻⁶ cm/s
Emax (human EP4): 96%
EC50 (human EP4): 2.51e-08 M

SMILES: NC(=O)c1ccc(-c2cc(CN3CCOC[C@@H]3C(=O)NC3(c4ccc(C(=O)O)cc4)CC3)ccc2O)cc1 [Example 34, (R)-4-(1-(4-((4′-carbamoyl-6-hydroxy-[1,1′-biphenyl]-3-yl)methyl)morpholine-3-carboxamido)cyclopropyl)benzoic acid]
Papp A→B at 1 h, 10 μM [1]: 0.39 ×10⁻⁶ cm/s
Emax (human EP4): 97%
EC50 (human EP4): 3.98e-10 M

SMILES: Cc1cc(S(N)(=O)=O)ccc1-c1cc(O)cc(CN2CCOC[C@@H]2C(=O)N[C@@H](C)c2ccc(C(=O)O)c(O)c2)c1 [Example 22, 2-hydroxy-4-((S)-1-((R)-4-((5-hydroxy-2′-methyl-4′-sulfamoyl-[1,1′-biphenyl]-3-yl)methyl)morpholine-3-carboxamido)ethyl)benzoic acid]
Papp A→B at 1 h, 10 μM [1]: < 0.2 ×10⁻⁶ cm/s
Emax (human EP4): 99%
EC50 (human EP4): 2.51e-10 M

SMILES: Cc1cc(S(N)(=O)=O)ccc1-c1cc(CN2CCOC[C@@H]2C(=O)N[C@@H](C)c2ccc(C(=O)O)cc2)ccn1 [Example 16, 4-[(1S)-1-[[(3R)-4-[[2-(2-methyl-4-sulfamoyl-phenyl)-4-pyridyl]methyl]morpholine-3-carbonyl]amino]ethyl]benzoic acid]
Papp A→B at 1 h, 10 μM [1]: < 0.1 ×10⁻⁶ cm/s
Emax (human EP4): 97%
EC50 (human EP4): 1.26e-07 M

SMILES: Cc1cc(C(N)=O)ccc1-c1cc(CN2CCOC[C@@H]2C(=O)N[C@@H](C)c2ccc(C(=O)O)cc2)ccn1 [Example 3, 4-[(1S)-1-[[(3R)-4-[[2-(4-carbamoyl-2-methyl-phenyl)-4-pyridyl]methyl]morpholine-3-carbonyl]amino]ethyl]benzoic acid]
Papp A→B at 1 h, 10 μM [1]: 0.57 ×10⁻⁶ cm/s
Emax (human EP4): 96%
EC50 (human EP4): 6.31e-08 M
